Measured values from patent US12029738B2, “Antiproliferative compounds and methods of use thereof” (Celgene Corporation, priority 2017, dated 2024).
Entries after “also recorded” stand apart in the source; their conditions may differ. Where two headings read alike, the source gives them in different places.

Assays:
[1] = target: T1, CYP2B6 (Homo sapiens, UniProt P20813); test: CYP inhibition in pooled human liver microsomes; type: in vitro ADME
T1 construct: from tissue; host or cells: pooled human liver microsomes
T1 sequence (P20813 1-491): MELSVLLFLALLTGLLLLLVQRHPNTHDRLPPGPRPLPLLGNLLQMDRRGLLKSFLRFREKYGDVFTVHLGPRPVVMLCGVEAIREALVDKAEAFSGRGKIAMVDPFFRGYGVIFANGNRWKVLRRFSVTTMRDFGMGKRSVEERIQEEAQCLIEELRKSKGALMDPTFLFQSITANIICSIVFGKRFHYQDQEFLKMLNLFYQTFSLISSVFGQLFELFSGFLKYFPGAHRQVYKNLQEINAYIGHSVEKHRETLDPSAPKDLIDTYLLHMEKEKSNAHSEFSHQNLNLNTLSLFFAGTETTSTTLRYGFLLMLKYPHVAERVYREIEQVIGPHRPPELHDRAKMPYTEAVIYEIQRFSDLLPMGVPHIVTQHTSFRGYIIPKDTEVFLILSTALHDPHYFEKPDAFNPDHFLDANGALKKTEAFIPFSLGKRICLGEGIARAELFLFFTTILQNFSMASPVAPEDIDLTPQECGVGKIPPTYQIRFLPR
Protocol: (§1) Methods. […] In addition, the compounds were evaluated for their potential to act as a time-dependent inhibitors at the same concentrations mentioned above. […] In addition to appropriate vehicle controls, known direct inhibitors and time-dependent inhibitors of CYP isoforms were included as positive controls. Following the incubation, concentrations of probe substrate metabolites were quantified using established LC/MS/MS methods. The extent of inhibition was expressed as the percentage of control activity.

[2] = target: T2, CYP2C19 (Homo sapiens, UniProt P33261); test: CYP inhibition in pooled human liver microsomes; type: in vitro ADME
T2 construct: from tissue; host or cells: pooled human liver microsomes
Protocol: as §1

[3] = target: T3, CYP2C9 (Homo sapiens, UniProt P11712); test: CYP inhibition in pooled human liver microsomes; type: in vitro ADME
T3 construct: from tissue; host or cells: pooled human liver microsomes
Protocol: as §1

[4] = tested on: CYP3A4/5; test: CYP inhibition in pooled human liver microsomes; type: in vitro ADME
Protocol: as §1

[5] = tested on: EJM; test: Flow cytometry proliferation/apoptosis assay (120 h); type: cell-based, human; conditions: for IC50: Homo sapiens, read-out: Antiproliferative Activity (Flow Cytometry) IC50; for induced apoptosis AUC (area under the dose response curve): scale 0-10000
Protocol: (§2) Methods. […] Using 5 mM stocks, compounds were pre-spotted into the appropriate wells of 96-well plates using a Hewlett-Packard D300 Digital Dispenser. Cells were added to 96-well plates using a Multidrop Combi Reagent Dispenser. After 5 days of treatment, flow cytometric analysis was used to determine the number of cells that were alive, dead, or apoptotic. After 5 days of treatment, cells were incubated with annexin V to stain exposed phosphatidylserine, an apoptotic cell-surface marker, and the vital dye 7-AAD, which is excluded from cells with intact cell membranes, and analyzed by flow cytometry (Attune®, Thermo Fisher). Analysis was then performed to determine the number of live cells (annexin V and 7-AAD double negative staining cells) and the percentage of apoptotic cells (annexin V positive cells) for each condition, relative to the DMSO control treated, was calculated. All described values were normalized to DMSO-only treated cells. All proliferation and apoptosis induction curves were processed and graphed as percent of control using XLFit (IDBS, Alameda, CA) and GraphPad Prism 7.03 (GraphPad Software, La Jolla, CA). The live cell count for every concentration was normalized to the DMSO control (considered as 100%) in Microsoft Excel to generate the proliferation curves. […] Similarly, for apoptosis analysis, the percentage of drug-induced apoptosis was calculated for all doses by combining both “early” (annexin V positive and 7-AAD negative) and “late” apoptosis (annexin V and 7-AAD positive) values and subtracting background values (cell treated with vehicle control DMSO). The AUC values for apoptosis curves were calculated by performing area under curve analysis on GraphPad Prism 7.03. The area under the dose-response curve (AUC) was calculated since it integrates potency and efficacy of the drugs to represent apoptosis into a single parameter. The IC50 values for Compound 2 and pomalidomide in the flow cytometry assays are presented Table 9.
(§3) The apoptosis induction effect of Compound 2 was assessed using flow cytometry after 120 h of treatment and compared with pomalidomide treatment. […] Each data point represents 2 independent experiments with at least two samples in each experiment. (Table 10).

[6] = tested on: L363; test: as above; type: cell-based, human; conditions: for IC50: Homo sapiens, L-363, read-out: Antiproliferative Activity (Flow Cytometry) IC50; for induced apoptosis AUC (area under the dose response curve): scale 0-10000
Protocol: as §2, §3

[7] = tested on: SK-MM-2; test: as above; type: cell-based, human; conditions: for IC50: Homo sapiens, SK-MM-2, read-out: Antiproliferative Activity (Flow Cytometry) IC50; for induced apoptosis AUC (area under the dose response curve): SKMM-2, scale 0-10000
Protocol: as §2, §3

[8] = tested on: CD38 expression in MM cell lines; test: Cell surface CD38 expression in MM cells (72 h pretreatment); type: cell-based, human; conditions: 72 h treatment
Protocol: FIG. 17. Compound 2 upregulates CD38 expression in MM cell lines. The cell surface expression of CD38 was evaluated in MM cells pretreated with Compound 2 or pomalidomide for 72 h. The dose response effects are shown for OPM-2 and OPM-2.P10 cell lines.
The extent of CD38 expression was greater with Compound 2 and occurred at lower concentrations compared to pomalidomide. MM cells+/−Compound 2 or pomalidomide pretreatment were evaluated in ADCC assays with daratumumab. […] Compound 2 treated cells were also more sensitive to daratumumab-mediated ADCC compared to pomalidomide treated cells. The ability of Compound 2 and pomalidomide to modulate daratumumab-mediated ADCP was also tested.

[9] = up to 30 μM, 30 minute preincubation with or without NADPH
[10] = up to / at 30 μM, human liver microsomes

T2 sequence (P33261 whole entry): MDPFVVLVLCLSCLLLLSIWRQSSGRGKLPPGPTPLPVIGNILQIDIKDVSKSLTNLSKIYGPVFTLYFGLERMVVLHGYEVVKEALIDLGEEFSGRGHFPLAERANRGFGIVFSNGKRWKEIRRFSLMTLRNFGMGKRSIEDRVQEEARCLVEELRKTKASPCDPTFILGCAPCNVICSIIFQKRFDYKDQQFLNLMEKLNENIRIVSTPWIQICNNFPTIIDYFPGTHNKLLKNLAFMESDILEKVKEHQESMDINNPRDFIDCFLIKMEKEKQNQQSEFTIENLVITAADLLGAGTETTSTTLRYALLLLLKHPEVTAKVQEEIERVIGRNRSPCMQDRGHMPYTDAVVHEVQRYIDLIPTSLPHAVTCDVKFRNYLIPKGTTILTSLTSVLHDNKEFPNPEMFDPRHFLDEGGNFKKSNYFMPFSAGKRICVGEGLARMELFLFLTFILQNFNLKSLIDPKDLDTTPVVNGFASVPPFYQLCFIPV
T3 sequence (P11712 whole entry): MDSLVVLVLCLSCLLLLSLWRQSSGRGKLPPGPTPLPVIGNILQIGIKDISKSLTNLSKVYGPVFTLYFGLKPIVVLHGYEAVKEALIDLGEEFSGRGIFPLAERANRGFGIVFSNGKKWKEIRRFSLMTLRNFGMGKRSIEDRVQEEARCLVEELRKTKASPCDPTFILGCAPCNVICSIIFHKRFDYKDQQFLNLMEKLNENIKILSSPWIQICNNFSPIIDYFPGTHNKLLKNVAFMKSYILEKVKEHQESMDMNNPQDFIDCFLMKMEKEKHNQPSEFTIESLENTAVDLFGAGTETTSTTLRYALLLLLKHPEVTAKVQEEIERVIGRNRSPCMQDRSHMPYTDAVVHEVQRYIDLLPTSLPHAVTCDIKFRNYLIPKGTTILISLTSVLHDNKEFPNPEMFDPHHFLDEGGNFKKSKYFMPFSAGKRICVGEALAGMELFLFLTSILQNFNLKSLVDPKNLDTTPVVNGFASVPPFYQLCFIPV

`O=C1CC[C@H](N2Cc3c(OCc4ccc(CN5CCN(c6ccc(F)cc6F)CC5)cc4)cccc3C2=O)C(=O)N1` [Compound B] was tested, and the “time-dependent inhibition of CYP2B6” value [1, 9] was “little to no time-dependent inhibition; also recorded: not a time-dependent inhibitor”, the “direct inhibition of CYP2B6” value [1, 10] was 59% and the “direct inhibition of CYP2C19” value ([2]; at 30 μM, human liver microsomes) was 45%. The “time-dependent inhibition of CYP2C19” value [2, 9] was “little to no time-dependent inhibition; also recorded: not a time-dependent inhibitor”, the “time-dependent inhibition of CYP2C9” value [3, 9] was “little to no time-dependent inhibition; also recorded: not a time-dependent inhibitor” and the “direct inhibition of CYP2C9” value [3, 10] was 38%. The IC50 ([4]; 30 minute preincubation with NADPH, substrate midazolam, read-out: shifted IC50 value (with NADPH) CYP3A4/5, midazolam) was 2230 nM, the IC50 ([4]; 30 minute preincubation with NADPH, substrate testosterone, read-out: shifted IC50 value (with NADPH) CYP3A4/5, testosterone) was 1930 nM and the IC50 ([4]; substrate testosterone, read-out: direct inhibition IC50 CYP3A4/5 (testosterone)) was 2920 nM. For the same compound, the “time-dependent inhibition of CYP3A4/5 (overall finding)” value ([4]; up to 30 μM, 30 minute preincubation) was “inhibited CYP3A4/5 in a time-dependent manner; also recorded: time-dependent inhibitor of CYP3A4/5” and the “direct inhibition of CYP3A4/5 (midazolam)” value ([4]; up to 30 μM, substrate midazolam) was “up to 30%”.

`Nc1cccc2c1C(=O)N(C1CCC(=O)NC1=O)C2=O` (stereo not drawn) [Pomalidomide, pomalidomide] was tested, and the IC50 [5] was 2840 nM, the “induced apoptosis AUC (area under the dose response curve)” value (from here on “induced apoptosis AUC”) [5] was 900 and the IC50 [6] was over 10000 nM. The “induced apoptosis AUC” value [6] was 293, the IC50 [7] was over 10000 nM and the “induced apoptosis AUC” value [7] was 1033. For the same compound, the “CD38 expression in MM cells” value [8] was “dose-dependent increase of CD38 expression”.

Work on `N#Cc1ccc(N2CCN(Cc3ccc(COc4cccc5c4CN([C@H]4CCC(=O)NC4=O)C5=O)cc3)CC2)c(F)c1` [Compound 2, (S)-4-(4-(4-(((2-(2,6-dioxopiperidin-3-yl)-1-oxoisoindolin-4-yl)oxy)methyl)benzyl)piperazin-1-yl)-3-fluorobenzonitrile] yielded an inhibition at 30 µM ([1]; human, microsomes) of at most 30%, an IC50 [2] of over 30000 nM and an inhibition at 30 µM ([2]; human, microsomes) of 41%. For the same compound, the inhibition at 30 µM ([3]; human, microsomes) was at most 30%, the IC50 ([4]; human, microsomes) was over 30000 nM and the inhibition at 30 µM ([4]; human, microsomes, direct inhibition of CYP3A4/5 (testosterone)) was 46%. For the same compound, the inhibition at 30 µM ([4]; human, microsomes, inhibition of CYP3A4/5 (testosterone) activity after preincubation with NADPH) was 59%, the inhibition at 30 µM ([4]; human, microsomes, inhibition of CYP3A4/5 (testosterone) activity after preincubation without NADPH) was 23% and the IC50 [5] was 0.43 nM. For the same compound, the “induced apoptosis AUC” value [5] was 2591, the IC50 [6] was 0.16 nM and the “induced apoptosis AUC” value [6] was 347. The IC50 [7] was 0.82 nM, the “induced apoptosis AUC” value [7] was 3204 and the “CD38 expression in MM cells” value [8] was “dose-dependent increase of CD38 expression”.
